Assay results: patent US20230085307A1, “PYRIDAZINONE COMPOUND AND HERBICIDE” (NISSAN CHEMICAL CORPORATION, priority 2019, published 2023)

What was measured:
late watergrass [1] = assay: Test Example 1: herbicidal activity, application before weed generation under submerged conditions (Table 16, symbol A); format: in vivo, late watergrass (Echinochloa oryzicola); conditions: amount of applied herbicide 320 g/ha
Summary of the method: (§1)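 Submerged Wagner pots (alluvial soil, 4 cm water) sown with weed seeds and planted with 2.5-leaf rice seedlings; emulsifiable concentrate diluted in water applied to water surface on sowing day. Held in greenhouse at 25-30 °C; injury scored 0-5 by herbicidal rate after three weeks.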

Japanese bulrush [2] = assay: Test Example 1: herbicidal activity, application before weed generation under submerged conditions (Table 16, symbol B); format: in vivo, Japanese bulrush (Schoenoplectus juncoides); conditions: amount of applied herbicide 320 g/ha
Summary of the method: as §1

oval-leafed pondweed [3] = assay: Test Example 1: herbicidal activity, application before weed generation under submerged conditions (Table 16, symbol C); format: in vivo, oval-leafed pondweed (Monochoria vaginalis); conditions: amount of applied herbicide 320 g/ha
Summary of the method: as §1

late watergrass [4] = assay: Test Example 2: herbicidal activity, application during weed generation under submerged conditions (Table 17, symbol A); format: in vivo, late watergrass (Echinochloa oryzicola); conditions: AAH 320 g/ha; application during weed generation, submerged conditions
Summary of the method: (§2)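 Alluvial soil in Wagner pots was flooded to 4 cm depth and sown with the three weeds together; pots were kept in a greenhouse at 25° C. to 30° C. At the one to two leaf stage, an emulsion formulation diluted in water to a set rate went onto the water surface; scored three weeks later.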

Japanese bulrush [5] = assay: Test Example 2: herbicidal activity, application during weed generation under submerged conditions (Table 17, symbol B); format: in vivo, Japanese bulrush (Schoenoplectus juncoides); conditions: AAH 320 g/ha; application during weed generation, submerged conditions
Summary of the method: as §2

oval-leafed pondweed [6] = assay: Test Example 2: herbicidal activity, application during weed generation under submerged conditions (Table 17, symbol C); format: in vivo, oval-leafed pondweed (Monochoria vaginalis); conditions: AAH 320 g/ha; application during weed generation, submerged conditions
Summary of the method: as §2

barnyard grass [7] = assay: Test Example 3: herbicidal effect by foliage application, Wagner pot (Table 18, symbol H); format: in vivo, barnyard grass (Echinochloa crus-galli); conditions: 320 g/ha
Summary of the method: (§3)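 Plants were sown in alluvial soil held under 0.1–0.5 cm standing water and grown 14 days in a greenhouse at 25–30 °C. An emulsifiable formulation, water-diluted to the set dose, was then sprayed onto the foliage, and effects were scored three weeks later using previously defined criteria.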

Chinese sprangletop = assay: Test Example 3: herbicidal effect by foliage application, Wagner pot (Table 18, symbol D); format: in vivo, chinese sprangletop (Leptochloa chinensis); conditions: 320 g/ha
Summary of the method: as §3

rice flat sedge = assay: Test Example 3: herbicidal effect by foliage application, Wagner pot (Table 18, symbol E); format: in vivo, rice flat sedge (Cyperus iria); conditions: 320 g/ha
Summary of the method: as §3

southern crabgrass = assay: Test Example 5: herbicidal effect by foliage application, plastic box (Table 20, symbol F); format: in vivo, southern crabgrass (Digitaria ciliaris); conditions: foliage application, 320 g/ha, three weeks after application
Summary of the method: (§4)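 Foliar spray test: emulsion formulation diluted in water to a set application rate, sprayed onto 14-day-old plants raised in diluvial soil at 25° C to 30° C under glass. Both herbicidal effect and crop effect rated visually three weeks later.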

green foxtail = assay: Test Example 5: herbicidal effect by foliage application, plastic box (Table 20, symbol G); format: in vivo, green foxtail (Setaria viridis); conditions: foliage application, 320 g/ha, three weeks after application
Summary of the method: as §4

barnyard grass [8] = assay: Test Example 5: herbicidal effect by foliage application, plastic box (Table 20, symbol H); format: in vivo, barnyard grass (Echinochloa crus-galli); conditions: foliage application, 320 g/ha, three weeks after application
Summary of the method: as §4

wild oat = assay: Test Example 5: herbicidal effect by foliage application, plastic box (Table 20, symbol I); format: in vivo, wild oat (Avena fatua); conditions: foliage application, 320 g/ha, three weeks after application
Summary of the method: as §4

blackgrass = assay: Test Example 5: herbicidal effect by foliage application, plastic box (Table 20, symbol J); format: in vivo, blackgrass (Alopecurus myosuroides); conditions: foliage application, 320 g/ha, three weeks after application
Summary of the method: as §4

Italian ryegrass = assay: Test Example 5: herbicidal effect by foliage application, plastic box (Table 20, symbol K); format: in vivo, Italian ryegrass (Lolium multiflorum); conditions: foliage application, 320 g/ha, three weeks after application
Summary of the method: as §4

windgrass = assay: Test Example 5: herbicidal effect by foliage application, plastic box (Table 20, symbol L); format: in vivo, windgrass (Apera spica-venti); conditions: foliage application, 320 g/ha, three weeks after application
Summary of the method: as §4

velvetleaf = assay: Test Example 5: herbicidal effect by foliage application, plastic box (Table 20, symbol M); format: in vivo, velvetleaf (Abutilon theophrasti); conditions: foliage application, 320 g/ha, three weeks after application
Summary of the method: as §4

lambsquarters = assay: Test Example 5: herbicidal effect by foliage application, plastic box (Table 20, symbol O); format: in vivo, lambsquarters (Chenopodium album); conditions: foliage application, 320 g/ha, three weeks after application
Summary of the method: as §4

persian speedwell = assay: Test Example 5: herbicidal effect by foliage application, plastic box (Table 20, symbol R); format: in vivo, Persian speedwell (Veronica persica); conditions: foliage application, 320 g/ha, three weeks after application
Summary of the method: as §4

CCCC(=O)Oc1c(C)nn(C)c(=O)c1-c1c(-c2ccccc2OC)sc2cc(C)c(C)cc12 [5-091]
Herbicidal effect, A: late watergrass (late watergrass [1]): 3 (Herbicidal rate of 40% or more and less than 70%)
Herbicidal effect, B: Japanese bulrush (Japanese bulrush [2]): 3 (Herbicidal rate of 40% or more and less than 70%)
Herbicidal effect, C: oval-leafed pondweed (oval-leafed pondweed [3]): 3 (Herbicidal rate of 40% or more and less than 70%)
herbicidal effect rating, A: late watergrass (late watergrass [4]): 3 (Herbicidal rate of 40% or more and less than 70%)
herbicidal effect rating, B: Japanese bulrush (Japanese bulrush [5]): 2 (Herbicidal rate of 20% or more and less than 40%)
herbicidal effect rating, C: oval-leafed pondweed (oval-leafed pondweed [6]): 3 (Herbicidal rate of 40% or more and less than 70%)
herbicidal effect on barnyard grass (H) (barnyard grass [7]): 4 (Herbicidal rate of 70% or more and less than 90%)
herbicidal effect on Chinese sprangletop (D) (Chinese sprangletop): 4 (Herbicidal rate of 70% or more and less than 90%)
herbicidal effect on rice flat sedge (E) (rice flat sedge): 3 (Herbicidal rate of 40% or more and less than 70%)
herbicidal effect on southern crabgrass (F) (southern crabgrass): 2 (Herbicidal rate of 20% or more and less than 40%)
herbicidal effect on green foxtail (G) (green foxtail): 3 (Herbicidal rate of 40% or more and less than 70%)
herbicidal effect on barnyard grass (H) (barnyard grass [8]): 3 (Herbicidal rate of 40% or more and less than 70%)
herbicidal effect on wild oat (I) (wild oat): 0 (Herbicidal rate of 5% or less (almost no effect))
herbicidal effect on blackgrass (J) (blackgrass): 4 (Herbicidal rate of 70% or more and less than 90%)
herbicidal effect on Italian ryegrass (K) (Italian ryegrass): 4 (Herbicidal rate of 70% or more and less than 90%)
herbicidal effect on windgrass (L) (windgrass): 4 (Herbicidal rate of 70% or more and less than 90%)
herbicidal effect on velvetleaf (M) (velvetleaf): 4 (Herbicidal rate of 70% or more and less than 90%)
herbicidal effect on lambsquarters (O) (lambsquarters): 3 (Herbicidal rate of 40% or more and less than 70%)
herbicidal effect on persian speedwell (R) (persian speedwell): 3 (Herbicidal rate of 40% or more and less than 70%)

CCCC(=O)Oc1c(C)nn(C)c(=O)c1-c1c(-c2ccc(F)cc2OC)sc2cc(C)c(C)cc12 [5-102]
Herbicidal effect, A: late watergrass (late watergrass [1]): 4 (Herbicidal rate of 70% or more and less than 90%)
Herbicidal effect, B: Japanese bulrush (Japanese bulrush [2]): 3 (Herbicidal rate of 40% or more and less than 70%)
Herbicidal effect, C: oval-leafed pondweed (oval-leafed pondweed [3]): 2 (Herbicidal rate of 20% or more and less than 40%)
herbicidal effect rating, A: late watergrass (late watergrass [4]): 3 (Herbicidal rate of 40% or more and less than 70%)
herbicidal effect rating, B: Japanese bulrush (Japanese bulrush [5]): 3 (Herbicidal rate of 40% or more and less than 70%)
herbicidal effect rating, C: oval-leafed pondweed (oval-leafed pondweed [6]): 2 (Herbicidal rate of 20% or more and less than 40%)
herbicidal effect on barnyard grass (H) (barnyard grass [7]): 4 (Herbicidal rate of 70% or more and less than 90%)
herbicidal effect on Chinese sprangletop (D) (Chinese sprangletop): 4 (Herbicidal rate of 70% or more and less than 90%)
herbicidal effect on rice flat sedge (E) (rice flat sedge): 3 (Herbicidal rate of 40% or more and less than 70%)
herbicidal effect on southern crabgrass (F) (southern crabgrass): 1 (Herbicidal rate of 5% or more and less than 20%)
herbicidal effect on green foxtail (G) (green foxtail): 0 (Herbicidal rate of 5% or less (almost no effect))
herbicidal effect on barnyard grass (H) (barnyard grass [8]): 1 (Herbicidal rate of 5% or more and less than 20%)
herbicidal effect on wild oat (I) (wild oat): 0 (Herbicidal rate of 5% or less (almost no effect))
herbicidal effect on blackgrass (J) (blackgrass): 3 (Herbicidal rate of 40% or more and less than 70%)
herbicidal effect on Italian ryegrass (K) (Italian ryegrass): 3 (Herbicidal rate of 40% or more and less than 70%)
herbicidal effect on windgrass (L) (windgrass): 2 (Herbicidal rate of 20% or more and less than 40%)
herbicidal effect on velvetleaf (M) (velvetleaf): 3 (Herbicidal rate of 40% or more and less than 70%)
herbicidal effect on lambsquarters (O) (lambsquarters): 3 (Herbicidal rate of 40% or more and less than 70%)
herbicidal effect on persian speedwell (R) (persian speedwell): 3 (Herbicidal rate of 40% or more and less than 70%)

Cc1nn(C)c(=O)c(-c2c(-c3ccc(OC(F)(F)F)cc3)sc3cc(Cl)c(Cl)cc23)c1O [5-107]
Herbicidal effect, A: late watergrass (late watergrass [1]): 3 (Herbicidal rate of 40% or more and less than 70%)
Herbicidal effect, B: Japanese bulrush (Japanese bulrush [2]): 0 (Herbicidal rate of 5% or less (almost no effect))
Herbicidal effect, C: oval-leafed pondweed (oval-leafed pondweed [3]): 0 (Herbicidal rate of 5% or less (almost no effect))
herbicidal effect rating, A: late watergrass (late watergrass [4]): 3 (Herbicidal rate of 40% or more and less than 70%)
herbicidal effect rating, B: Japanese bulrush (Japanese bulrush [5]): 3 (Herbicidal rate of 40% or more and less than 70%)
herbicidal effect rating, C: oval-leafed pondweed (oval-leafed pondweed [6]): 3 (Herbicidal rate of 40% or more and less than 70%)
herbicidal effect on barnyard grass (H) (barnyard grass [7]): 3 (Herbicidal rate of 40% or more and less than 70%)
herbicidal effect on Chinese sprangletop (D) (Chinese sprangletop): 0 (Herbicidal rate of 5% or less (almost no effect))
herbicidal effect on rice flat sedge (E) (rice flat sedge): 0 (Herbicidal rate of 5% or less (almost no effect))
herbicidal effect on southern crabgrass (F) (southern crabgrass): 2 (Herbicidal rate of 20% or more and less than 40%)
herbicidal effect on green foxtail (G) (green foxtail): 2 (Herbicidal rate of 20% or more and less than 40%)
herbicidal effect on barnyard grass (H) (barnyard grass [8]): 3 (Herbicidal rate of 40% or more and less than 70%)
herbicidal effect on velvetleaf (M) (velvetleaf): 3 (Herbicidal rate of 40% or more and less than 70%)
herbicidal effect on lambsquarters (O) (lambsquarters): 4 (Herbicidal rate of 70% or more and less than 90%)
